Measured values as given in US11413280B2 (The Board of Trustees of the Leland Stanford Junior …, priority 2017, dated 2022).

Assays:
PAEC = test: MTT proliferation assay in PAEC; format: cell-based, human; details: Enzastaurin 0.5-50 M as printed
Protocol: Assays were conducted according to the manufacturer's instructions and as previously described(E1,E9).
Quantified area=% of cells that show nuclear γH2AX staining quantified with automated software (white nuclei=positive stain, grey nuclei=background stain). […] (n=3). […] (n=3).
As a cumulative viability measurement, we quantified caspase3/7 activity, using the luminescent Caspase-Glo®3/7 assay(36) and DNA damage, using histone H2AX phosphorylation by immunofluorescence and quantification as nuclear area staining (%) by confocal microscopy(34, 35, 37). […] PAEC proliferation was assessed via an MTT proliferation assay and hemocytometer cell counts(36).

PKC = PKC and p-PKC protein expression in lung tissue of SuHx rats (immunoblot); format: in vivo, rat; details: whole lung tissue, 5 mg/kg daily oral gavage
Protocol: Experimental PAH was induced in male Sasco Sprague Dawley rats by subcutaneous injection of 20 mg/kg body weight SU5416.

Cn1cc(C2=C(c3cn(C4CCN(Cc5ccccn5)CC4)c4ccccc34)C(=O)NC2=O)c2ccccc21 [Enzastaurin, 3-(1-methyl-1H-indol-3-yl)-4-[1-[1-(pyridin-2-ylmethyl)piperidin-4-yl]-1H-indol-3-yl]-1H-pyrrole-2,5-dione]
PAEC proliferation (MTT) (PAEC): no increase in PAEC proliferation was detected | PKC activation as measured by its phosphorylation (PKC): did not observe a significant decrease
